Source: ChEMBL document CHEMBL1201862, “PubChem BioAssay data set” (2004)
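Assay format: 96-well plates, 48-hour exposure. Abbreviation: GI50, concentration required for 50% inhibition of growth.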 Active and inactive are the calls of the source. Cut-off read from the data, not from the text of the source: active = GI50 up to about 1.1 µM and inactive = higher.

Columns and labels:
Assay in all cases: growth of human tumour cells (NCI), 48 h
A549 = tested on: A549
CCRF-CEM = tested on: CCRF-CEM
EKVX = tested on: EKVX
HOP-62 = tested on: HOP-62
IGROV-1 = tested on: IGROV-1
K562 = tested on: K562
KM12 = tested on: KM12
NCI-H460 = tested on: NCI-H460
OVCAR-3 = tested on: OVCAR-3
OVCAR-4 = tested on: OVCAR-4
RPMI-8226 = tested on: RPMI-8226
SF-295 = tested on: SF-295
SK-MEL-28 = tested on: SK-MEL-28
SK-MEL-5 = tested on: SK-MEL-5
SNB-19 = tested on: SNB-19
U-251 = tested on: U-251
UACC-62 = tested on: UACC-62
HCC 2998 = tested on: HCC 2998
HCT-116 = tested on: HCT-116
LOX IMVI = tested on: LOX IMVI

Measured: GI50

O=C1CCC[C@H]2O[C@@H](COC(=O)c3ccccc3)C[C@H]2O1
inactive: A549 > 100 µM | CCRF-CEM > 100 µM | EKVX > 100 µM | HOP-62 > 100 µM | IGROV-1 > 100 µM | K562 > 100 µM | KM12 > 100 µM | NCI-H460 > 100 µM | OVCAR-3 > 100 µM | OVCAR-4 > 100 µM | RPMI-8226 > 100 µM | SF-295 > 100 µM | SK-MEL-28 > 100 µM | SK-MEL-5 > 100 µM | SNB-19 > 100 µM | U-251 > 100 µM | UACC-62 > 100 µM

CN(C)C(=O)N(CCCl)N=O
inactive: A549 > 100 µM | CCRF-CEM > 100 µM | EKVX > 100 µM | HCC 2998 > 100 µM | HCT-116 > 100 µM | HOP-62 > 100 µM | IGROV-1 > 100 µM | K562 > 100 µM | KM12 > 100 µM | LOX IMVI > 100 µM | NCI-H460 > 100 µM | OVCAR-3 > 100 µM | OVCAR-4 > 100 µM | RPMI-8226 > 100 µM | SF-295 > 100 µM | SK-MEL-28 > 100 µM | SK-MEL-5 > 100 µM | SNB-19 > 100 µM | U-251 > 100 µM | UACC-62 > 100 µM

CC(C)OP(=O)(OC(C)C)C1=NN(c2ccc([N+](=O)[O-])cc2)C(P(=O)(OC(C)C)OC(C)C)=NN1c1ccc([N+](=O)[O-])cc1
inactive: A549 7.94 µM | CCRF-CEM 91.4 µM | EKVX 8.91 µM | HCC 2998 47.2 µM | HCT-116 7.6 µM | HOP-62 > 100 µM | IGROV-1 > 100 µM | K562 6.95 µM | KM12 67.3 µM | LOX IMVI > 100 µM | NCI-H460 29.2 µM | OVCAR-3 > 100 µM | OVCAR-4 > 100 µM | RPMI-8226 5.62 µM | SK-MEL-28 > 100 µM | SK-MEL-5 24.5 µM | SNB-19 > 100 µM | U-251 42.7 µM | UACC-62 > 100 µM

CCCCc1nccc2c(C)c3[nH]c4ccccc4c3cc12
inactive: A549 3.87 µM | CCRF-CEM 2.85 µM | EKVX 4.48 µM | HCC 2998 3.44 µM | HCT-116 1.77 µM | HOP-62 3.68 µM | IGROV-1 3.33 µM | K562 1.95 µM | KM12 3.09 µM | LOX IMVI 1.5 µM | NCI-H460 2.17 µM | OVCAR-3 2.79 µM | OVCAR-4 3.91 µM | RPMI-8226 2 µM | SF-295 2.68 µM | SK-MEL-28 4.26 µM | SK-MEL-5 2.24 µM | SNB-19 5 µM | U-251 3.37 µM | UACC-62 2.8 µM

COC1C(=O)CCC2(CO2)C1(O)C1(C)OC1CC=C(C)C (stereo unspecified)
inactive: A549 10.6 µM | EKVX 93.5 µM | HCC 2998 17.7 µM | HCT-116 11.3 µM | HOP-62 14.7 µM | IGROV-1 16.9 µM | K562 16.9 µM | KM12 16.2 µM | LOX IMVI 5.21 µM | NCI-H460 27.3 µM | OVCAR-3 25.2 µM | OVCAR-4 > 100 µM | SF-295 29.8 µM | SK-MEL-28 17.3 µM | SK-MEL-5 14.7 µM | SNB-19 15 µM | U-251 13.9 µM | UACC-62 13.7 µM

Cc1ccc(C2C(Cl)C(=O)N2NC(=O)c2ccc(N)cc2)cc1 (stereo unspecified)
inactive: A549 27.7 µM | CCRF-CEM 7.73 µM | EKVX 28.8 µM | HCC 2998 > 100 µM | HCT-116 15 µM | HOP-62 22.4 µM | IGROV-1 8.97 µM | K562 22.5 µM | KM12 25.5 µM | LOX IMVI 11.2 µM | NCI-H460 17.6 µM | OVCAR-3 17.4 µM | OVCAR-4 29 µM | RPMI-8226 24.2 µM | SF-295 20.3 µM | SK-MEL-28 12.4 µM | SK-MEL-5 15.2 µM | SNB-19 18.4 µM | U-251 14.6 µM | UACC-62 15.8 µM

C=C(C[C@@H](O)[C@H](C)NC(=O)OCc1ccccc1)C(=O)OC(C)(C)C
inactive: A549 > 100 µM | CCRF-CEM 17.3 µM | EKVX 76.6 µM | HCC 2998 > 100 µM | HCT-116 > 100 µM | HOP-62 > 100 µM | IGROV-1 > 100 µM | K562 35.9 µM | KM12 > 100 µM | LOX IMVI 53.8 µM | NCI-H460 > 100 µM | OVCAR-3 78.2 µM | OVCAR-4 47.5 µM | RPMI-8226 29.8 µM | SF-295 89.1 µM | SK-MEL-28 > 100 µM | SK-MEL-5 26.1 µM | SNB-19 > 100 µM | U-251 > 100 µM | UACC-62 51.2 µM

C1=C(c2ccccc2)SC(N2CCCCC2)S1 (stereo unspecified)
inactive: CCRF-CEM 95.5 µM | EKVX 86.7 µM | HCT-116 > 100 µM | HOP-62 > 100 µM | IGROV-1 > 100 µM | K562 52.2 µM | KM12 > 100 µM | LOX IMVI 72.9 µM | NCI-H460 > 100 µM | OVCAR-3 > 100 µM | OVCAR-4 > 100 µM | RPMI-8226 59.7 µM | SF-295 > 100 µM | SNB-19 > 100 µM | U-251 > 100 µM | UACC-62 > 100 µM

Cc1ccc(S(=O)(=O)Oc2cc(-c3ccccc3)nc3ccccc23)cc1
active: HCC 2998 1 µM | K562 0.869 µM | SNB-19 0.419 µM
inactive: A549 3.15 µM | CCRF-CEM 2.89 µM | EKVX 19.4 µM | HCT-116 2.36 µM | HOP-62 3.73 µM | IGROV-1 3.85 µM | KM12 1.2 µM | LOX IMVI 8.97 µM | NCI-H460 1.81 µM | OVCAR-3 2.12 µM | OVCAR-4 7.33 µM | RPMI-8226 2.61 µM | SF-295 1.91 µM | SK-MEL-28 11.3 µM | SK-MEL-5 1.42 µM | U-251 2.51 µM | UACC-62 3.01 µM

O=C(NCCN(CCNC(=O)c1cccc(=O)n1O)CCNC(=O)c1cccc(=O)n1O)c1cccc(=O)n1O
inactive: A549 > 100 µM | CCRF-CEM > 100 µM | HCC 2998 > 100 µM | HOP-62 > 100 µM | IGROV-1 > 100 µM | K562 > 100 µM | KM12 > 100 µM | NCI-H460 > 100 µM | OVCAR-3 > 100 µM | OVCAR-4 > 100 µM | RPMI-8226 > 100 µM | SF-295 > 100 µM | SK-MEL-28 > 100 µM | SK-MEL-5 > 100 µM | SNB-19 > 100 µM | U-251 > 100 µM | UACC-62 > 100 µM

CC(=O)c1sc(Nc2nnc(-c3ccc(-c4nnc(Nc5nc(C)c(C(C)=O)s5)o4)cc3)o2)nc1C
inactive: A549 > 10 µM | CCRF-CEM > 100 µM | EKVX > 100 µM | HCC 2998 > 100 µM | HCT-116 > 100 µM | HOP-62 > 100 µM | IGROV-1 > 100 µM | K562 > 100 µM | KM12 > 10 µM | LOX IMVI > 100 µM | NCI-H460 > 100 µM | OVCAR-3 > 100 µM | OVCAR-4 > 100 µM | RPMI-8226 > 100 µM | SF-295 > 100 µM | SK-MEL-28 > 100 µM | SNB-19 > 100 µM | U-251 > 100 µM | UACC-62 > 100 µM

O=S1(=O)C(=C(c2ccccc2)c2ccccc2)S(=O)(=O)c2ccccc21
inactive: A549 > 100 µM | CCRF-CEM > 100 µM | EKVX > 100 µM | HCC 2998 97.1 µM | HCT-116 > 100 µM | HOP-62 23.2 µM | IGROV-1 > 95.5 µM | K562 > 100 µM | KM12 > 100 µM | LOX IMVI > 100 µM | NCI-H460 > 100 µM | OVCAR-3 > 57.9 µM | OVCAR-4 83.6 µM | RPMI-8226 > 100 µM | SF-295 33.8 µM | SK-MEL-28 > 100 µM | SK-MEL-5 > 89.7 µM | SNB-19 > 58.1 µM | U-251 51.6 µM | UACC-62 > 72.1 µM

CCC12CCC(O)C1N(C)CCC2Sc1ccccc1 (stereo unspecified)
inactive: A549 > 100 µM | CCRF-CEM 77.4 µM | EKVX > 100 µM | HCC 2998 29.9 µM | HCT-116 70 µM | HOP-62 > 100 µM | IGROV-1 > 100 µM | K562 37.4 µM | KM12 52.8 µM | LOX IMVI > 100 µM | NCI-H460 > 100 µM | OVCAR-3 > 100 µM | OVCAR-4 > 100 µM | RPMI-8226 59.3 µM | SF-295 76.2 µM | SK-MEL-28 75.3 µM | SK-MEL-5 33 µM | SNB-19 > 100 µM | U-251 78.2 µM | UACC-62 > 100 µM

COc1ccc(/C(Cl)=C(\C=O)c2ccc(Cl)cc2)cc1
inactive: A549 5.61 µM | CCRF-CEM 2.94 µM | EKVX 5.07 µM | HCC 2998 23.2 µM | HCT-116 4.02 µM | HOP-62 19.4 µM | IGROV-1 7.71 µM | K562 3.81 µM | LOX IMVI 3.45 µM | NCI-H460 3.81 µM | OVCAR-3 4.68 µM | OVCAR-4 8.61 µM | SF-295 4.4 µM | SK-MEL-5 11.2 µM | SNB-19 7.01 µM | U-251 3.79 µM | UACC-62 10.1 µM

Cc1cn([C@@H]2C[C@H](CO)[C@@H](O)C2)c(=O)[nH]c1=O
inactive: A549 > 100 µM | CCRF-CEM > 100 µM | EKVX > 100 µM | HCC 2998 > 100 µM | HCT-116 > 100 µM | HOP-62 > 100 µM | IGROV-1 > 100 µM | K562 > 100 µM | KM12 > 100 µM | LOX IMVI > 100 µM | NCI-H460 > 100 µM | OVCAR-3 > 100 µM | OVCAR-4 > 100 µM | SF-295 > 100 µM | SK-MEL-28 > 100 µM | SNB-19 > 100 µM | U-251 > 100 µM | UACC-62 > 100 µM
